Patent publication US6610725B1, “Fluorinated imidazoline benzodioxane, preparation and therapeutic uses thereof” (Pierre Fabre Medicament, priority 1999, dated 2003)
Entries after “also recorded” stand apart in the source; their conditions may differ. Counter-ions that a name gives are not always drawn.

How the values were obtained:
[1] = system: α1 or α2 receptors; conditions: from J. Med. Chem. publications; cited from earlier work
[2] = system: α2-adrenergic receptors; assay: Inhibition of the hypothermia induced with guanabenz; type: in vivo; conditions: for ED50 inhibition of hypothermia / Range of active doses, inhibition of hypothermia / ED50 normalization of hypothermia / Range of active doses, normalization of hypothermia: i.p.; for Range of active doses, normalization of hypothermia: normalization (return to normal temperature); for Number of doses inducing the inhibition of hypothermia in 100% of the animals: each dose separated by a factor of 4
Method: The assessment of the biological activity of the compounds of the invention is also carried out in vivo by studying the inhibition of the hypothermia induced with a central α2-agonist such as guanabenz according to the protocol of S. C. Dilsaver, Pharmacol. Biochem. Behav., 45, 247, 1993.
The inhibitory capacities are expressed as the ED50 which represent the doses producing a significant inhibition of the hypothermia induced with guanabenz on the one hand, and a normalization, that is to say a return to the normal temperature for the animal, before injection of guanabenz on the other hand. These values are obtained using the method of J. T. Litchfield and F. Wilcoxon (J. Pharmacol. Exp. Ther., 96, 99, 1949). The comparison is made between the 2-methoxy compounds, fluorinated in position 5 (dextrorotatory compound of Example 1) and nonfluorinated: (+) RX 821002, and between the 2-ethoxy, fluorinated in position 5 (dextrorotatory compound of Example 2) and nonfluorinated: (+) RX 811059.

[3] = system: memory deficit induced with scopolamine; assay: Memory deficit induced with scopolamine (passive avoidance test); type: in vivo; conditions: rats; active doses over the range from 0.04 to 2.5 mg/kg
Text: In accordance with the cholinergic hypothesis of the phenomena of learning and memory, scopolamine has […] properties in animals and man. Its administration to a healthy person induces certain amnesia symptoms similar to those observed in Alzheimer's disease. It has been proposed that the scopolamine be used as an experimental pharmacological model of this pathology. The similarities between the memory deficits of Alzheimer's disease and those induced with scopolamine in rats have been published (P. Chopin et M. Briley, The effects of raubasine and dihydroergocristine on an […] deficit in passive avoidance learning in rats, J.Pharm.Pharmacol. 42, 375-376, 1990). Scopolamine reduces the capacity for acquisition, memorization and recall in a test of passive avoidance in rats. This involves measuring the reticence, after learning, that the animal has in entering a dark compartment, where it receives a mild electric shock. The administration of scopolamine suppresses this reticence, and the test compounds oppose the effect of scopolamine. The comparison of the products of the present invention is made with the known compound RX 821002, dextrorotatory enantiomer. The experimental protocol is that published by P. Chopin and M. Briley (Effects of four non-cholinergic cognitive enhancers in comparison with tacrine and galanthamine on scopolamine-induced amnesia in rats: Psychopharmacology, 106, 26-30, 1992).

[4] = system: release of noradrenalin; assay: Release of noradrenalin: normetanephrine level in frontal cortex; type: in vivo; conditions: mice, i.p., 0.01 to 2.5 mg/kg, 60 minutes, cortical tissue, HPLC
Method: The level of normetanephrine, a noradrenalin metabolite, in the cerebral tissues is used as a measurement of the release of noradrenalin. Wood, P. L. and coll. Pharmacological Rev. 40, 163-187, (1988), and J. Neurochem. 48, 574-579, (1987)). The formation of normetanephrine, by the action of catechol O-methyltransferase takes place on the outside of the noradrenergic neurones and its measurement takes account of variations in the release of noradrenalin. This measurement is performed in the frontal cortex, a region innervated mainly by the locus coeruleus.
The test compound is administered intraperitoneally to the mice, which are sacrificed after 60 minutes by irradiation with microwaves (to avoid any artefactual changes in the metabolite levels). After dissection, normetanephrine is assayed by HPLC on the cortical tissue extracts. At doses of 0.01 to 2.5 mg/kg, the assayed normetanephrine represents a level from 125 to 150% higher with the compound of Example 1, relative to (+) RX 821002, under the same conditions.

Row | SMILES | melting point | ED50 inhibition of hypothermia [2] | Range of active doses, inhibition of hypothermia [2] | ED50 normalization of hypothermia [2] | Range of active doses, normalization of hypothermia [2] | Increase in the time taken to enter the dark compartment by the treated animals, relative to those receiving scopolamine alone (% amplitude of the effect) [3] | further results
1 | COc1cc2c(cc1OC)OC(OC)(C1=NCCN1)CO2 (stereo not shown) | – | – | – | – | – | – | Activity relative to unsubstituted idazoxan analog / α2-presynaptic antagonist activity [1]: only extremely marginal activity
2 | Fc1cccc2c1OCC(OCc1ccccc1)(C1=NCCN1)O2 (stereo not shown) (as salt: hydrochloride) (hydrate or solvate) [Example 8, 2-(5-Fluoro-2-benzyloxy-1,4-benzodioxan-2-yl)-imidazoline Hydrochloride] | 218 °C | – | – | – | – | – | –
3 | CCCOC1(C2=NCCN2)COc2c(F)cccc2O1 (stereo not shown) (as salt: hydrochloride) [Example 3, 2-(5-Fluoro-2-propoxy-1,4-benzodioxan-2-yl)-imidazoline Hydrochloride] | 206 °C | – | – | – | – | – | –
4 | CC(C)COC1(C2=NCCN2)COc2c(F)cccc2O1 (stereo not shown) (as salt: hydrochloride) [Example 5, 2-(5-Fluoro-2-isobutoxy-1,4-benzodioxan-2-yl)-imidazoline Hydrochloride] | 206 °C | – | – | – | – | – | –
5 | C=CCOC1(C2=NCCN2)COc2c(F)cccc2O1 (stereo not shown) (as salt: hydrochloride) [Example 7, 2-(5-Fluoro-2-allyloxy-1,4-benzodioxan-2-yl)-imidazoline Hydrochloride] | 214 °C | – | – | – | – | – | –
6 | CCOC1(C2=NCCN2)COc2c(F)cccc2O1 (stereo not shown) (as salt: salt) [Example 2, 2-(5-Fluoro-2-ethoxy-1,4-benzodioxan-2-yl)-2-imidazoline] | > 260 °C | – | – | – | – | – | –
7 | CCOC1(C2=NCCN2)COc2ccccc2O1 (single isomer, unassigned; (+)) [(+) RX 811059, 2-ethoxy idazoxan] | – | 0.08 mg/kg | 0.04 to 10 mg/kg | 0.32 mg/kg | 0.16 to 10 mg/kg | – | –
8 | COC1(C2=NCCN2)COc2ccccc2O1 (single isomer, unassigned; (+)) [(+) RX 821002, 2-methoxy idazoxan] | – | 0.01 mg/kg | 0.01 to 10 mg/kg | 0.05 mg/kg | 0.04 to 2.5 mg/kg | not significantly active; also recorded: non-significant | Number of doses inducing the inhibition of hypothermia in 100% of the animals [2]: 2 doses; Doses normalizing the hypothermia in 100% of the animals ([2]; list of single doses): none; ED50 normalization (per os) [2]: 0.56 mg/kg; Range of active doses (per os) normalization [2]: 0.16 to 10 mg/kg; Proportion of the animals in which hypothermia is normalized (maximum reached) ([2]; reached at only 2 doses): 80%
9 | COC1(C2=NCCN2)COc2c(F)cccc2O1 (stereo not shown) [Dextrorotatory compound of Example 1, 2-(5-Fluoro-2-methoxy-1,4-benzodioxan-2-yl)-2-imidazoline] | – | 0.003 mg/kg | 0.0025 to 40 mg/kg | 0.02 mg/kg | 0.0025 to 10 mg/kg | 201% | Number of doses inducing the inhibition of hypothermia in 100% of the animals [2]: 6 doses; Number of doses normalizing the hypothermia in 100% of the animals ([2]; in vivo): 3 doses; ED50 normalization (per os) [2]: 0.22 mg/kg; Range of active doses (per os) normalization [2]: 0.04 to 40 mg/kg
10 | CCOC1(C2=NCCN2)COc2c(F)cccc2O1 (stereo not shown) [Dextrorotatory compound of Example 2, 2-(5-Fluoro-2-ethoxy-1,4-benzodioxan-2-yl)-2-imidazoline] | – | 0.02 mg/kg | 0.0025 to 40 mg/kg | 0.16 mg/kg | 0.01 to 10 mg/kg | 198% | –
11 | COc1cc2c(cc1OC)C(=O)C(CC1CCN(Cc3ccccc3)CC1)C2 (stereo not shown) [Donepezil] | – | – | – | – | – | 67% | –
12 | COC1(C2=NCCN2)COc2c(F)cccc2O1 (stereo not shown) [Example 1, 2-(5-Fluoro-2-methoxy-1,4-benzodioxan-2-yl)-2-imidazoline] | – | – | – | – | – | – | Assayed normetanephrine level relative to (+) RX 821002 [4]: 125 to 150 % higher
13 | Nc1c2c(nc3ccccc13)CCCC2 [Tacrine] | – | – | – | – | – | 191% | –
